{"source": "patent US5972357A", "about": "“Healthy foods and cosmetics” (Kikkoman Corporation, priority 1996, dated 1999)", "key": {"[1]": {"assay": "superoxide scavenging activity test with phenazine methosulfate", "details": "40 μM final concentration", "protocol": "The active oxygen scavenging activity was evaluated according to the superoxide scavenging activity test with phenazine methosulfate. That is to say, dihydronicotinamide adenine dinucleotide and phenazine methosulfate were first reacted in a buffer at a physiological hydrogen ion concentration. The absorbance at 560 nm of a formazan pigment produced by the reduction of Nitro Blue Tetrazolium with superoxide was measured. […] The ratio of decreases of absorbance was expressed as superoxide scavenging activity."}, "[2]": {"assay": "anti-oxidation activity in a lipid oxidation process promoted by a metal ion (copper sulfate)", "details": "5 μM copper sulfate added; lesser ratio = stronger", "protocol": "The anti-oxidation activities was evaluated according to the method by A. Ben Aziz et al. (see Phytochemistry, 10, 1445, 1971). That is to say, an emulsion of linoleic acid and β-carotene was first prepared with Tween 20 (Sigma) and adjusted to pH 7.0 with 0.1 M trishydroxyaminomethane-hydrochloride. To the emulsion was added 0.0005% of a substance to be tested, and the mixture was reacted at 25° C.\nDuring the reaction, the color degradation of β-carotene in association with the autoxidation of linoleic acid was measured with the passage of time as the decreased value of the optical density at 460 nm with a spectrophotometer.\nThe substance to be tested was a garcinal preparation obtained in Referential Example 1, and vitamin E and (+)-catechin were used as Comparative Example. The antioxidant activity was measured as a ratio of the decreasing rate of absorbance in the presence of the substance to be tested to the decreasing rate of absorbance in the absence of the antioxidant. That is, the substance is judged to have an antioxidant activity when the ratio is less than 1, and thus it is predicated that the lesser the ratio, the stronger the antioxidant activity.\nThe oxidation process of linoleic acid in Experimental Example 1 is promoted by a metal ion. If 5 μM of copper sulfate is added to the reaction system, the color-degradation rate of β-carotene is promoted by about 30%. When garcinol was added to this system, the ratio of the decreasing rate of absorbance was 0.57. In this connection, it was 0.13 for vitamin E and 0.84 for (+)-catechin."}, "[3]": {"assay": "anti-oxidation activity (linoleic acid/β-carotene emulsion, autoxidation)", "details": "0.0005% test substance, pH 7.0, 25° C., 460 nm; lesser ratio = stronger", "protocol": "The anti-oxidation activities was evaluated according to the method by A. Ben Aziz et al. […] That is to say, an emulsion of linoleic acid and β-carotene was first prepared with Tween 20 (Sigma) and adjusted to pH 7.0 with 0.1 M trishydroxyaminomethane-hydrochloride. […] During the reaction, the color degradation of β-carotene in association with the autoxidation of linoleic acid was measured with the passage of time as the decreased value of the optical density at 460 nm with a spectrophotometer. […] The antioxidant activity was measured as a ratio of the decreasing rate of absorbance in the presence of the substance to be tested to the decreasing rate of absorbance in the absence of the antioxidant."}, "[4]": {"assay": "DPPH radical scavenging activity", "details": "0.0002% test substance, 1.0×10^-4 M DPPH, 25° C., 1 hour, 528 nm", "protocol": "The 1,1-diphenyl-2-picrylhydrazyl (DPPH) radical scavenging activity was tested with a garcinol preparation prepared in the similar manner as described in Referential Example 1. That is to say, a 1.0×10^-4 M solution (50% ethanolic) of DPPH was prepared, 0.0002% of a test substance was added, and the decrease of optical density at 528 nm was measured after 1 hour reaction at 25° C. for one hour. In this case, ascorbic acid was used as a standard, the decrease of the absorbance was expressed as 100, and the radical scavenging activity of the test substance was measured as equivalences to ascorbic acid. In this connection, a garcinol preparaion used as the test substance, and vitamin E and (+)-catechin were used as references."}, "[5]": {"system": "bovine serum albumin", "assay": "suppression of generation of reactive oxygen species in the presence of metal ion (oxidation of bovine serum albumin in Fenton reaction)", "type": "biochemical", "details": "1 mM test substance, 10 μM copper ion, 20 mM hydrogen peroxide, 4 mg/ml BSA", "protocol": "The activity for suppressing the generation of reactive oxygen species in the presence of metal ion was evaluated by measuring the effect for suppressing the oxidation of bovine serum albumin by hydroxyl radical in the Fenton reaction system. That is to say, hydroxyl radical was first produced by divalent copper ion and hydrogen peroxide (Fenton reaction). Bovine serum albumin was oxidized by the hydroxyl radical, and thus carbonyl was produced. The carbonyl was reacted with 2,4-dinitrophenylhydrazine, and determined by measuring the absorbance at 365 nm. […] The ratio of decreases of absorbance was expressed as the activity for suppressing the generation of reactive oxygen species in the presence of metal ion."}, "[6]": {"system": "bovine serum albumin", "assay": "Maillard reaction inhibiting activity (bovine serum albumin/D-fructose)", "description": "(§3) A solution containing bovine serum albumin (4 mg/ml), 500 mM D-fructose and 200 mM potassium phosphate buffer (pH 7.4) was aseptically prepared. To the solution was added 0.1 mM of a test substance. The substance insoluble in water was added as an ethanolic solution so as the final concentration of ethanol to be less than 1%. After incubation of these solutions at 37° C. for 5 days, equivalent volume of a cold 10% trichloroacetic acid solution was added to the solution to precipitate proteins. The precipitate was collected by centrifugation, further washed with a cold 5% trichloroacetic acid solution, and dissolved again in a 200 mM potassium phosphate buffer. The solution was diluted appropriately with distilled water, and the fluorescence intensity at 425 nm was measured with an excitation wave length at 350 nm in a fluorescence spectrophotometer (Shimadzu Seisakusho, Ltd.). The inhibition activity was calculated from the following equation.\n(§4) Inhibition activity (%)=(Fc-Fs)/(Fc-Fb)×100\n(§5) Fs: fluorescence intensity in the presence of test substance;\n(§6) Fc: fluorescence intensity in the absence of test substance;\n(§7) Fb: fluorescence intensity in the absence of fructose."}, "[7]": {"system": "bovine serum albumin", "details": "bovine serum albumin/d-fructose, 120 h, 1000 µM, pH 7.4", "description": "as §3, §4, §5, §6, §7"}, "[8]": {"system": "gastric ulcer", "assay": "anti-ulcer test against indomethacin-induced gastric ulcer", "type": "in vivo, Wistar/ST male rats", "details": "200 mg/kg oral; for Length of ulcer: 30 minutes before indomethacin (50 mg/kg s.c.), control 47.75 ± 6.08; for Suppression rate: indomethacin ulcer, vs. control", "protocol": "Ulcer was induced in Wistar/ST male rats having a weight of about 200 g (6 week-old) by indomethacin as a gastric ulcer inducing agent, and the anti-ulcer effects of the test samples were examined in the following six groups to which test samples were administered.\n(§1) Each group comprises six rats.\n______________________________________\n(§2) Group 1: (control) physiological saline\nGroup 2: (comparative) cetraxate hydrochloride\nGroup 3: (the present invention) garcinol\nGroup 4: (the present invention) garcinol\nGroup 5: (the present invention) garcinol\nGroup 6: (the present invention) isogarcinol\nIn this connection, physiological saline containing 1% sodium carboxymethylcellulose was used as the control, and cetraxate hydrochloride (trade name \"Neuer®S\", Daiichi Pharmaceuticals Co., Ltd.) which is clinically used as an anti-ulcer agent was used as the comparative sample. The cetraxate hydrochloride insoluble in water was ground into fine powder with a mortar and a pestle and used as a suspension in a 1% sodium carboxymethylcellulose solution. Also, garcinol and isogarcinol in the form of fine powder were used as the suspensions in a 1% sodium carboxymethylcellulose solution in the concentrations which are the doses in the groups. In this connection, garcinol and isogarcinol used in the section of the present invention were those obtained in Referential Examples 1 and 2, respectively.\nExperiment was carried out according to the method described by Yamahara et al. (see […] ZASSHI, 114, 401, 1994) which had been slightly modified. That is to say, indomethacin (50 mg/kg) was suspended in 1% sodium carboxymethylcellulose containing 0.1% Tween 20 (Sigma) and injected subcutaneously into the back of 24 hour fasted rats in an amount of 1 ml/rat. The samples in the six sections were orally administered at 30 minutes before administration of indomethacin. After 7 hours from the administration of indomethacin, rats were bleeded to death under anesthetization with nembutal, and stomach was isolated. A phosphate buffer (10 ml) containing 10% formalin was injected into the stomach, which was cut open after 10 minutes, and the length of lesion caused in the glandular stomach portion was defined as the lesion index, which was measured in the mm unit to evaluate the anti-ulcer effect. The suppression rate (%) in Table 1 means the value in which the difference of the length (mm) of ulcer in each group subtracted from the average length, 47.75 (mm) of ulcer in the control was divided with the average length, 47.75 (mm) of ulcer in the control. The larger the value, the stronger the anti-ulcer activity."}, "[9]": {"system": "gastric ulcer", "assay": "anti-ulcer test against stress ulcer (restrained immersion into water)", "type": "in vivo, Wistar/ST male rats", "details": "200 mg/kg oral", "protocol": "Gastric ulcer was induced in Wistar/ST male rats having a weight of about 200 g (6 w) by the stress of restrained immersion into water and the anti-ulcer effects of the test samples were examined in the following groups to which test samples were administered.\nas §1, §2\nGroup 2: (comparative) cetraxate hydrochloride 200 mg/kg\nGroup 3: (the present invention) garcinol 200 mg/kg\nIn this connection, the test samples in the control, comparative group and the present invention group were prepared in the same manner as in Experimental Example 9.\nRats having fasted for 24 hours were locked up in a restrained dipping cage after 30 minutes from the oral administration of respective test samples. Next, rats were stressed by dipping the cage into water at 23° C. for 7 hours, and bleeded to death under anesthetization with nembutal, and stomach was isolated. A phosphate buffer (10 ml) containing 10% formalin was injected into the stomach, which was cut open after 10 minutes, and the length of lesion caused in the glandular stomach portion was defined as the lesion index, which was measured in the mm unit to evaluate the anti-ulcer effect.\nThe method for calculating the suppression rate (%) and the meaning of it has been described in Experimental Example 9."}, "[10]": {"system": "bovine lens α-crystallin", "assay": "α-crystallin crosslinking polymerization inhibiting activity", "type": "biochemical", "details": "0.1 mM, 500 mM D-fructose, pH 7.4, 37° C., 2 weeks", "protocol": "The effect of garcinol on bovine lens α-crystallin crosslinking polymerization reaction was evaluated. […] The gel after electrophoresis was stained with Coomassie Brilliant Blue, and the protein amounts in bands were determined with a densitometer. The crosslinking polymerization inhibiting activity of the protein was calculated from the following equation.\nProtein polymerization inhibiting activity (%)=(Ps-Pc)/Pc×100\npolymerization degree of protein=band density of polymerized protein/band density of monomer protein;\nPs: polymerization degree of protein in the presence of test substance;\nPc: polymerization degree of protein in the absence of test substance."}}, "note": "Where a name gives a salt, the structure may show the parent alone. Read-outs that look alike come from different tables or passages of the source.", "data": [{"compound": "Oc1cc(O)c2c(c1)O[C@H](c1ccc(O)c(O)c1)[C@@H](O)C2", "note": "[(+)-catechin]", "values": [{"measurement": "superoxide scavenging rate", "setting": "[1]", "value": 25, "unit": "%"}, {"measurement": "ratio of the decreasing rate of absorbance (antioxidant activity with metal ion)", "setting": "[2]", "value": 0.84}, {"measurement": "antioxidant activity (ratio of the decreasing rate of absorbance with to without test substance)", "setting": "[3]", "value": 0.18}, {"measurement": "DPPH radical scavenging activity (equivalences to ascorbic acid = 100)", "setting": "[4]", "value": 73}, {"measurement": "oxidation of bovine serum albumin, result in words", "setting": "[5]", "value": "promoted oxidation rather extensively"}]}, {"compound": "N=C(N)NN", "note": "[Aminoguanidine]", "values": [{"measurement": "Maillard reaction inhibition activity, result in words", "setting": "[6]; 0.1 mM, 37° C., 5 days, pH 7.4", "value": "no activity"}, {"measurement": "Maillard reaction inhibition activity", "setting": "[6]; 1 mM, 7200 min", "value": "no more than 43%"}]}, {"compound": "CC(C)(S)[C@@H](N)C(=O)O", "note": "[D-penicillamine]", "values": [{"measurement": "Maillard reaction inhibition activity", "setting": "[7]", "value": 27, "unit": "%"}]}, {"compound": "NC[C@H]1CC[C@H](C(=O)Oc2ccc(CCC(=O)O)cc2)CC1", "note": "[cetraxate hydrochloride, reference compound]", "values": [{"measurement": "Length of ulcer", "setting": "[8]", "value": "14.30 ± 10.9", "unit": "mm"}, {"measurement": "Suppression rate", "setting": "[8]", "value": 70.1, "unit": "%"}, {"measurement": "Length of ulcer", "setting": "[9]; restrained water immersion 23° C., 7 hours, control 44.20 ± 18.10", "value": "18.80 ± 6.02", "unit": "mm"}, {"measurement": "Suppression rate", "setting": "[9]; stress ulcer, vs. control", "value": 57.5, "unit": "%"}]}, {"compound": "CC(C)=CC[C@H]1C[C@@]23C[C@@H](CC=C(C)C)C(C)(C)[C@@](CC=C(C)C)(C(=O)C(C(=O)c4ccc(O)c(O)c4)=C2OC1(C)C)C3=O", "note": "[isogarcinol]", "values": [{"measurement": "Length of ulcer", "setting": "[8]", "value": "22.40 ± 15.3", "unit": "mm"}, {"measurement": "Suppression rate", "setting": "[8]", "value": 53.1, "unit": "%"}]}, {"compound": "O=c1c(O)c(-c2ccc(O)c(O)c2)oc2cc(O)cc(O)c12", "note": "[quercetin]", "values": [{"measurement": "superoxide scavenging rate", "setting": "[1]", "value": 63, "unit": "%"}, {"measurement": "protein polymerization inhibiting activity", "setting": "[10]", "value": 33, "unit": "%"}, {"measurement": "oxidation of bovine serum albumin, result in words", "setting": "[5]", "value": "promoted oxidation rather extensively"}]}, {"compound": "vitamin E", "values": [{"measurement": "ratio of the decreasing rate of absorbance (antioxidant activity with metal ion)", "setting": "[2]", "value": 0.13}, {"measurement": "antioxidant activity (ratio of the decreasing rate of absorbance with to without test substance)", "setting": "[3]", "value": 0.10}, {"measurement": "DPPH radical scavenging activity (equivalences to ascorbic acid = 100)", "setting": "[4]", "value": 25}]}]}
